Assay results reported in ChEMBL document CHEMBL1201862, “PubChem BioAssay data set” (2004).
Active and inactive are the calls of the source.

Tests used:
[1] = target: Peroxisome proliferator-activated receptor gamma/Nuclear receptor coactivator 2 (Homo sapiens, UniProt P37231); test: (§1) TR-FRET dose response biochemical High Throughput Screening assay for agonists of the steroid receptor coactivator 2 (SRC-2) recruitment by the peroxisome proliferator-activated receptor gamma (PPAR gamma): non-selective agonists. [Related pubchem assays: 1297, 1032 ]; type: functional
[2] = target: Cytochrome P450 2C19 (Homo sapiens, UniProt P33261); test: Cytochrome panel assay with activity outcomes. Panel member name: p450-cyp2c19 Compounds with AC50 equal or less than 10 uM are considered active; type: functional; details: read-out: AC50
[3] = target: Peroxisome proliferator-activated receptor gamma/Nuclear receptor coactivator 3 (Homo sapiens, UniProt P37231); test: as §1, with “3 (SRC-3)” for “2 (SRC-2)”, “1301 (Confirmation screen.), 1048 (Primary screen.)]” for “1297, 1032 ]”; type: functional
[4] = target: Peroxisome proliferator-activated receptor gamma/Nuclear receptor coactivator 1 (Homo sapiens, UniProt P37231); test: as §1, with “1 (SRC-1)” for “2 (SRC-2)”, “assays (depositor defined):AID1300, AID1808, AID504735, AID631]” for “assays: 1297, 1032 ]”; type: protein assay
[5] = target: Photoreceptor-specific nuclear receptor (Homo sapiens, UniProt Q9Y5X4); type: functional;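 note: potency for compounds that break the NR2E3 corepressor complex and count as activators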
Chain of Photoreceptor-specific nuclear receptor (Q9Y5X4 whole entry): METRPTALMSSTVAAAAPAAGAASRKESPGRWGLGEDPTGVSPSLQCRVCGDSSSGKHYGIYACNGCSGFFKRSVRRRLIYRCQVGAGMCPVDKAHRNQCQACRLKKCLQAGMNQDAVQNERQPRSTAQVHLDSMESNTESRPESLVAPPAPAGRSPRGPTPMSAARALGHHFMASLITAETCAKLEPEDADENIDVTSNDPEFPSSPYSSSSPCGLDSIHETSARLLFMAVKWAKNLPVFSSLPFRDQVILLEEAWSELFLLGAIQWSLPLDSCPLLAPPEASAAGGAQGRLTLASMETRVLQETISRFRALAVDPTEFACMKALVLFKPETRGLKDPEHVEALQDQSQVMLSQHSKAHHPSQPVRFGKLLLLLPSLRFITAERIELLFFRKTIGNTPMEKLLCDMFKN

[6] = target: Peroxisome proliferator-activated receptor gamma/Nuclear receptor corepressor 2 (Homo sapiens, UniProt P37231+Q9Y618); type: functional
[7] = target: Cyclin-dependent kinase 5/CDK5 activator 1 (Homo sapiens, UniProt Q00535); test: blockade of human CDK5 activity – biochemical, cherry-picked samples, set 2, dose response (AID 504545)
Chain of Cyclin-dependent kinase 5/CDK5 activator 1 (Q00535 whole entry): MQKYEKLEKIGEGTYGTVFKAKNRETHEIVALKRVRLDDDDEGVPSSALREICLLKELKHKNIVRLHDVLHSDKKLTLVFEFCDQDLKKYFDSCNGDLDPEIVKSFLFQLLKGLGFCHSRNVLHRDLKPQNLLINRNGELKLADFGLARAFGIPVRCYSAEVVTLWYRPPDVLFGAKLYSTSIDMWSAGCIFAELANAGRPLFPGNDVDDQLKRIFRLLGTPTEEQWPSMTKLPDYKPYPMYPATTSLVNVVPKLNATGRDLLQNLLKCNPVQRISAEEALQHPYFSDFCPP
Chain of Cyclin-dependent kinase 5/CDK5 activator 1 (Q15078 whole entry, further chain): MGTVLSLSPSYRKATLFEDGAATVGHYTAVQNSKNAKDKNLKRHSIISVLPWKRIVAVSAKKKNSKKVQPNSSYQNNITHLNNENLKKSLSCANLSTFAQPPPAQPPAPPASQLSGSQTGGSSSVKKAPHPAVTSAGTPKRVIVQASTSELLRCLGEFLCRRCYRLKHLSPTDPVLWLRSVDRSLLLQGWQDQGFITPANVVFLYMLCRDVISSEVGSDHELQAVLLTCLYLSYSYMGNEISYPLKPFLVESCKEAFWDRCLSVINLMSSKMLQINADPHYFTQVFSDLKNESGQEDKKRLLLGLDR

[8] = target: T1, Fructose-bisphosphate aldolase (Mycobacterium tuberculosis, UniProt P9WQA3); test: Fluorescence-based biochemical high throughput dose response assay for inhibitors of the fructose-bisphosphate aldolase (FBA) of M. tuberculosis.; type: functional
T1 sequence (P9WQA3 whole entry): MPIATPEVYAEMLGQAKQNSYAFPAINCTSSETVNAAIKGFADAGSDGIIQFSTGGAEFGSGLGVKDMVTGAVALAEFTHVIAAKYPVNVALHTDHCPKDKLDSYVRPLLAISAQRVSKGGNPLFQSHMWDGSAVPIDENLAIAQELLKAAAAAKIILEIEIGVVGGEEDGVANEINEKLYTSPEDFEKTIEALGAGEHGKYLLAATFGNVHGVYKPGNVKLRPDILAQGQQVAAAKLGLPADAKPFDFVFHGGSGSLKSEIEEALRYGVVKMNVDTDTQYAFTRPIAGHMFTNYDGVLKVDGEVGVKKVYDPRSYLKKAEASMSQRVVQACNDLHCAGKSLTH

[9] = A small molecule screen for inhibitors of the PhoP region in Salmonella typhi (3) using purified and synthesized compounds. [Related pubchem assays (depositor defined):AID1850, AID1864, AID1985, AID2252, AID2384, AID2612, AID2811, AID449743, AID463179]; type: functional
[10] = target: Wee1-like protein kinase (Homo sapiens, UniProt P30291); test: HeLa cell cycle G2/M accumulation – FACS, mechanism study for Wee1 degradation inhibitor project, late-stage follow-up, panel member Wee1 Degradation (AID 2088)
Chain of Wee1-like protein kinase (P30291 whole entry): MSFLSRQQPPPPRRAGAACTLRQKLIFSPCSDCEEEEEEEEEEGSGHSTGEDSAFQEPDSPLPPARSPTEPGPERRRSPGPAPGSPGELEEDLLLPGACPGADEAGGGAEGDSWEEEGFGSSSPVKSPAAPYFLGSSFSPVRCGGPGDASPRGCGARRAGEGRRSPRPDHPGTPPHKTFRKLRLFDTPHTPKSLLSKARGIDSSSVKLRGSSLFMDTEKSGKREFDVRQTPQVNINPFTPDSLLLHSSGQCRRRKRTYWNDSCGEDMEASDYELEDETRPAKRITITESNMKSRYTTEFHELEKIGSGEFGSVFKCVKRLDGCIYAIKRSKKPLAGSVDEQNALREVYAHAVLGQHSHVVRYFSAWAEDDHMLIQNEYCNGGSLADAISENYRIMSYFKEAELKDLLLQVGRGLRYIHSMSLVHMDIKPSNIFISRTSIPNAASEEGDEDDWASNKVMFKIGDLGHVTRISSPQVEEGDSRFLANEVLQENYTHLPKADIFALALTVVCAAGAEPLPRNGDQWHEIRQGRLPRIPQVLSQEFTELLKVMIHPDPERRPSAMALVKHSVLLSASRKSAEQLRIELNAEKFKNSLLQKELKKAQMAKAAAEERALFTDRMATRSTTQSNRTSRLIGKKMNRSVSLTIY

[11] = target: G2/mitotic-specific cyclin-B1 (Homo sapiens, UniProt P14635); test: HeLa cell cycle G2/M accumulation – FACS, mechanism study for Wee1 degradation inhibitor project, late-stage follow-up, panel member Cyclin B Degradation (AID 2088)
Chain of G2/mitotic-specific cyclin-B1 (P14635 whole entry): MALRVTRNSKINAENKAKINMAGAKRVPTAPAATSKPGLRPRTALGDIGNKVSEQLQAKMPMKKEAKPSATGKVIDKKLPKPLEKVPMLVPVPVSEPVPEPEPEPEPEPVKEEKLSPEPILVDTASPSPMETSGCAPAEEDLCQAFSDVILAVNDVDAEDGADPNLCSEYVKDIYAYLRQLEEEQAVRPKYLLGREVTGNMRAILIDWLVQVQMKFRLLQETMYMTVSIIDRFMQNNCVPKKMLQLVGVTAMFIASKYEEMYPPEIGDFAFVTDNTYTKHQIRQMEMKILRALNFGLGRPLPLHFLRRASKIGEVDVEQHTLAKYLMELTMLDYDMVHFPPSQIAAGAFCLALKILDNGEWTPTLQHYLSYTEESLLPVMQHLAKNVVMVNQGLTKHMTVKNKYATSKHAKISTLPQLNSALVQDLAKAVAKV

[12] = target: Heat shock 70 kDa protein 1A (Homo sapiens, UniProt P0DMV8); test: inhibition of Hsp70 binding activity – biochemical, fluorescence polarization, SAR follow-up (AID 1072)
Chain of Heat shock 70 kDa protein 1A (P0DMV8 whole entry, the tested form may be a part): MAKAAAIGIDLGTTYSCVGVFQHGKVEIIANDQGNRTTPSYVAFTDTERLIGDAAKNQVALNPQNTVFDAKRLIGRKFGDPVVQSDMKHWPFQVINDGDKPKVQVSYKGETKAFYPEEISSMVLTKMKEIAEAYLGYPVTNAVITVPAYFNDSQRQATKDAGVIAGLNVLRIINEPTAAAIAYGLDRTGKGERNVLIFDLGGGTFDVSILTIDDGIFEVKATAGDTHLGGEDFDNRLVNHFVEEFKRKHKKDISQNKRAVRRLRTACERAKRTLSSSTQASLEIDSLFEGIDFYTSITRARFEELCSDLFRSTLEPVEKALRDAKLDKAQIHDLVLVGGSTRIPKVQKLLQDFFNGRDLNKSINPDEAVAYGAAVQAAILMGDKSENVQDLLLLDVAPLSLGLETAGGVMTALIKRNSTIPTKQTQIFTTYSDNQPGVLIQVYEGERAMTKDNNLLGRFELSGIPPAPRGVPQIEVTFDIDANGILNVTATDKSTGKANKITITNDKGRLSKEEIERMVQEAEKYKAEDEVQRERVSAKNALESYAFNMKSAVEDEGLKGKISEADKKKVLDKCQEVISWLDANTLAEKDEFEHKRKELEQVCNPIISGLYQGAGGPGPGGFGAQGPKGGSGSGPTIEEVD

[13] = target: T2, RNA-binding protein pos-1 (Caenorhabditis elegans, UniProt G5EF15); test: disruptors of C. elegans POS-1 RNA interaction – biochemical, fluorescence polarization, dose response (AID 1964);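 note: purified POS-1 fused to maltose binding protein made in E. coli; potency of compounds blocking POS-1 binding to fluorescent RNA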
T2 sequence (G5EF15 whole entry): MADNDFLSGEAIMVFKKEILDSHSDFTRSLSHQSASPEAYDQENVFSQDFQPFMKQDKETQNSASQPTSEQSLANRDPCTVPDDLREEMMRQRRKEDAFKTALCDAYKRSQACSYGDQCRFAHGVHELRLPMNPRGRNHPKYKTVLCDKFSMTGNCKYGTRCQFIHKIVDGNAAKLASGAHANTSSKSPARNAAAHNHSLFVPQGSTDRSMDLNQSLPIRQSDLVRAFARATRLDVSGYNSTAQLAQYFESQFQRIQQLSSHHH

[14] = system: Vero; test: viability of Vero cells under compound – cytotoxicity control for flavivirus capping enzyme inhibitors (AID 588742); type: functional; details: Chlorocebus sabaeus
[15] = target: T3, Cysteine protease ATG4B (Homo sapiens, UniProt Q9Y4P1); type: functional;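 note: Fluorescence-based dose-response confirmation assay measuring inhibition of ATG4B activity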
T3 sequence (Q9Y4P1 whole entry): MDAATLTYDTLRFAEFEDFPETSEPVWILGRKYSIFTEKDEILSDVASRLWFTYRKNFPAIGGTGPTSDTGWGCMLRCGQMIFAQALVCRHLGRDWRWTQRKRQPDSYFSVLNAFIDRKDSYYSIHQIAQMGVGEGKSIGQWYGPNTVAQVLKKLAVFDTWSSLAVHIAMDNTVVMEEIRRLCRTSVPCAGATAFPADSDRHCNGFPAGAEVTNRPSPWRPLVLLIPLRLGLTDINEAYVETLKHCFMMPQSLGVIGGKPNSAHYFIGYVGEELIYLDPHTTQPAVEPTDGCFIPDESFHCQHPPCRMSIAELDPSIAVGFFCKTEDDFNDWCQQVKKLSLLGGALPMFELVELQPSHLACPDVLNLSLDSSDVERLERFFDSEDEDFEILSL

[16] = target: Phospholipase A2 (Homo sapiens, UniProt P04054); type: functional;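 note: confirmatory dose-response counterscreen on phospholipase A2, testing hits that came from an ultra-high-throughput screen for ATG4B inhibitors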
Chain of Phospholipase A2 (P04054 whole entry): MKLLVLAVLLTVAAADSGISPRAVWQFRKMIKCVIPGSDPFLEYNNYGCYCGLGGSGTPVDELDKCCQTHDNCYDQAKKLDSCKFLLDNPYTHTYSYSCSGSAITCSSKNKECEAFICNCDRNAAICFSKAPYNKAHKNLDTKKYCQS

[17] = target: T4, Dual specificity protein phosphatase 6 (Rattus norvegicus, UniProt Q64346)
T4 sequence (Q64346 whole entry): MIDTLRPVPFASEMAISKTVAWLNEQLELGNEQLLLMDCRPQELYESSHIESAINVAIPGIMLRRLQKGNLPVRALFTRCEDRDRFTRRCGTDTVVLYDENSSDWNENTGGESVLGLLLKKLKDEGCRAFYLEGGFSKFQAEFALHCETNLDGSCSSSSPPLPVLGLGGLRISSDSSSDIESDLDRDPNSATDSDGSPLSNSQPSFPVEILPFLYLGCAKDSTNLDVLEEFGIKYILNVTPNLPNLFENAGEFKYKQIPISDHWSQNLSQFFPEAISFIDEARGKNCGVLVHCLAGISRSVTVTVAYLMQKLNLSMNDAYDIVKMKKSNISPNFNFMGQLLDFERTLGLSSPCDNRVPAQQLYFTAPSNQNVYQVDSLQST

[18] = target: Glyceraldehyde-3-phosphate dehydrogenase (Homo sapiens, UniProt P04406)
Chain of Glyceraldehyde-3-phosphate dehydrogenase (P04406 whole entry): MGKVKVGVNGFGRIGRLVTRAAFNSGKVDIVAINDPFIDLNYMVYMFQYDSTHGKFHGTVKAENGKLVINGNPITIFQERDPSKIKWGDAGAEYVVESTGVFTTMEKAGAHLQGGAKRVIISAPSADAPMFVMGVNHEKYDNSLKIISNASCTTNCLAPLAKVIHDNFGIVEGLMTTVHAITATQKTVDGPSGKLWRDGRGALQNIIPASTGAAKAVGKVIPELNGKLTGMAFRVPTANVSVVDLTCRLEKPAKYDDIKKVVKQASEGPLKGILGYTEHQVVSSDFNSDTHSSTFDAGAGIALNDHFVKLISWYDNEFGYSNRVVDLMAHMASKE

[19] = target: T4, Dual specificity protein phosphatase 6; type: functional
[20] = target: T5, Zinc finger protein mex-5 (Caenorhabditis elegans, UniProt Q9XUB2); test: potency of MEX-5 RNA-binding blockers – biochemical, C. elegans, fluorescence polarization, dose response (AID 1960)
T5 sequence (Q9XUB2 whole entry): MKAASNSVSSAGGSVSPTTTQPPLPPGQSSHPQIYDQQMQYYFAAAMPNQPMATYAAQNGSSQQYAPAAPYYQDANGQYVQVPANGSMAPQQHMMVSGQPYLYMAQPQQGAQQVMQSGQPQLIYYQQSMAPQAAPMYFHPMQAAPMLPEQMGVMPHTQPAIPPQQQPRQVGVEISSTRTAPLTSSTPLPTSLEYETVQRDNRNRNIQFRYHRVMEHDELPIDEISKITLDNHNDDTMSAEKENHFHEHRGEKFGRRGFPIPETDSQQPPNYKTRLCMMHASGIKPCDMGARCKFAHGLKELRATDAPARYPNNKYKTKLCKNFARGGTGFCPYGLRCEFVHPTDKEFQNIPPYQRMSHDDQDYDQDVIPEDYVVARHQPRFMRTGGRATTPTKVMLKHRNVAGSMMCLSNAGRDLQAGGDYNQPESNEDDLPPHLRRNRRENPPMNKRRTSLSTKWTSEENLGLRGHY

[21] = system: HeLa; test: viability loss in HeLa cells – cell-based, 24 h, cherry-picked samples, cytotoxicity control, dose response (AID 504726); type: functional; details: Homo sapiens;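 note: potency for cytotoxicity as loss of luminescence signal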
[22] = target: ORF 73 (Human herpesvirus 8, UniProt O40947); test: KSHV LANA DNA-binding disruption – biochemical, fluorescence polarization, cherry-picked samples, dose response (AID 504725); set-up: species or system Human gammaherpesvirus 8;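 note: fluorescence polarization of a labeled DNA duplex reporting LANA DNA binding; potency is for inhibitors that block LANA binding to the DNA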
Chain of ORF 73 (O40947 whole entry): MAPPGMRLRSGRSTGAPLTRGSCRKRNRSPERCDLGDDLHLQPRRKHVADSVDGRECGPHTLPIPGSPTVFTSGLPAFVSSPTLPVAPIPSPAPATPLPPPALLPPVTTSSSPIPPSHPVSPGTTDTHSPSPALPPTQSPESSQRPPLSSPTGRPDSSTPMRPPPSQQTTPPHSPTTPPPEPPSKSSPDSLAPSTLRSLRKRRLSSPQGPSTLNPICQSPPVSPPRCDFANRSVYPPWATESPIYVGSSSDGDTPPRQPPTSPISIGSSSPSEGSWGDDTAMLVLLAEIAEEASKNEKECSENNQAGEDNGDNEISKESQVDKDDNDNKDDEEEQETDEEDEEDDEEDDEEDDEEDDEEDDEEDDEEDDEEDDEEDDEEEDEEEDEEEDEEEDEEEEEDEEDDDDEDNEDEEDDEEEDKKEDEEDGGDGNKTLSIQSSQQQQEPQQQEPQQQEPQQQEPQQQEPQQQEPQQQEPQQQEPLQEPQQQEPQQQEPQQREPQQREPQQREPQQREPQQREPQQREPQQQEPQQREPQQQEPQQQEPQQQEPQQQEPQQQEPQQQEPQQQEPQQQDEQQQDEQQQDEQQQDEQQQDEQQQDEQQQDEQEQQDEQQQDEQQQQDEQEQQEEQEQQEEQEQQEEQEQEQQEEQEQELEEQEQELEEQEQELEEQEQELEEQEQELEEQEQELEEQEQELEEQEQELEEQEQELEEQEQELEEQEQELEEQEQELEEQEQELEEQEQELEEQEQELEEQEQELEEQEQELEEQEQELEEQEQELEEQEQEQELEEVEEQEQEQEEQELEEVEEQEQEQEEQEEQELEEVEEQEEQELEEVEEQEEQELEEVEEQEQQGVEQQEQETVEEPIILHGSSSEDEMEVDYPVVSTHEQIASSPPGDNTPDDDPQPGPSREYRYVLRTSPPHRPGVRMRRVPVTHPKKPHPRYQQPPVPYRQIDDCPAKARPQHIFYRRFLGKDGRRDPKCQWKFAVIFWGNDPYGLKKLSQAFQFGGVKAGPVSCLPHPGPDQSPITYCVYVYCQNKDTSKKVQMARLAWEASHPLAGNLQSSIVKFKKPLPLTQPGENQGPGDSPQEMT

[23] = target: T6, Tyrosine-protein phosphatase non-receptor type 7 (Homo sapiens, UniProt P35236); type: functional
T6 sequence (P35236 whole entry): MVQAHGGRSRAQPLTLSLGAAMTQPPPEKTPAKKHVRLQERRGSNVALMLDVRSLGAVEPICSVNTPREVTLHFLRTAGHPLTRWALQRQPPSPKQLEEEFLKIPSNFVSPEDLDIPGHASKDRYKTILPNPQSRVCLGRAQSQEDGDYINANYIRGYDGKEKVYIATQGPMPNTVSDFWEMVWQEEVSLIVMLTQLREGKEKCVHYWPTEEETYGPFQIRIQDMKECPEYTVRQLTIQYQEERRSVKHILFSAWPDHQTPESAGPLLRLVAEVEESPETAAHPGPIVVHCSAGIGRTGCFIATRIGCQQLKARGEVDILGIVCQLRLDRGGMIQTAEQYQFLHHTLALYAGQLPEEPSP

[24] = target: Heat shock cognate 71 kDa protein (Homo sapiens, UniProt P11142); test: In Vitro Hsc70 Dose Response Fluorescence Polarization Assay. [Related pubchem assays: 1072 ]
Chain of Heat shock cognate 71 kDa protein (P11142 whole entry): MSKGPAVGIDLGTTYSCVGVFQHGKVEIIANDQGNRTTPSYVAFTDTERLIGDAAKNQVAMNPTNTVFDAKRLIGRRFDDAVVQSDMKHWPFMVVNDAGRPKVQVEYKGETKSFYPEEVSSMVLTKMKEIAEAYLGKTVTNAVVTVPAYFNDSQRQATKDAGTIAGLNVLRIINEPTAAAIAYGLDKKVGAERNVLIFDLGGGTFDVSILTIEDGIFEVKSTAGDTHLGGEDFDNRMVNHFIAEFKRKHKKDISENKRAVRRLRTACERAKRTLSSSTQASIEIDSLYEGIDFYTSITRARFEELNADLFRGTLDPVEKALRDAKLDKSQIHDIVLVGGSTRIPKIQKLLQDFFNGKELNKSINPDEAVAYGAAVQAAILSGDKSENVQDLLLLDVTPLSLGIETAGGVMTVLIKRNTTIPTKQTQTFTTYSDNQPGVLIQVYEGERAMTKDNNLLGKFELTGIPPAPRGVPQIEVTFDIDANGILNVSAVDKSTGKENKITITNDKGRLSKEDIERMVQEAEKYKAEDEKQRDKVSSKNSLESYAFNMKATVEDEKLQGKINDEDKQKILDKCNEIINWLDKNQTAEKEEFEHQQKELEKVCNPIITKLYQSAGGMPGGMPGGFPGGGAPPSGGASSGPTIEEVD

In the case of CN(C)CCN1C(=O)C(O)=C(C(=O)c2cc3ccccc3o2)C1c1cccc(Br)c1 (centres undefined), the EC50 [1] is reported as > 79.4 µM (not active), the AC50 [2] is reported as 31.6 µM (inconclusive) and the EC50 [3] is reported as > 79.4 µM (not active). The EC50 [4] was > 79.4 µM (inactive), the IC50 [5] was > 39.8 µM (not active) and the IC50 [6] was 2.25 µM (active).

For CNS(=O)(=O)c1ccc2c3c(cccc13)C(=O)N2, the AC50 [7] was 32.6 µM (active) and the IC50 [8] was 1.6 µM (active).

For Cc1cccc(NC(=O)N2CCCN(Cc3ccccc3F)C2)c1, the IC50 [9] was > 150 µM (active).

For Cc1ccc(NC(=O)COc2cc(=O)n(C)c3ccccc23)nc1, the EC50 [10] was > 49.7 µM (inactive) and the EC50 [11] was > 49.7 µM (inactive).

In the case of O=C(O)C1Nc2ccc(Br)cc2C2C=CCC12 (centres undefined), the IC50 [12] is reported as 3.24 µM (active), the EC50 [13] is reported as 9.81 µM (active) and the CC50 [14] is reported as > 40 µM (active). For the same compound, the IC50 [15] was 3.94 µM (active), the IC50 [16] was 8.24 µM (active) and the IC50 [17] was 12.8 µM (active). For the same compound, the IC50 [18] was 28.7 µM (active), the IC50 [19] was 12.3 µM (active) and the EC50 [20] was 6.32 µM (active). The AC50 [21] was 106 µM (active), the AC50 [22] was 29.2 µM (active) and the IC50 [23] was 1.63 µM (active). The IC50 [24] was > 100 µM (not active).
